Reference: patent publication EP4610269A1, “UROKINASE PLASMINOGEN ACTIVATOR SURFACE RECEPTOR (UPAR) LIGANDS FOR DIAGNOSTIC OR THERAPEUTIC USE” (3B Pharmaceuticals GmbH, priority 2024, dated 2025)
Where a SMILES comes first, the peptide text is derived from it. Bridges are numbered along the chain shown (N, C = ends). [ ]: non-standard residue; d: D form. The star is where a group is joined. X4 = C[N+](C)(CCCC[C@H](NC(=O)CN1CCN(CC(=O)O)CCN(CC(=O)O)CCN(CC(=O)O)CC1)C(=O)*)CCCS(=O)(=O)[O-]; DOTA = O=C(O)CN1CCN(CC(=O)O)CCN(CC(=O)*)CCN(CC(=O)O)CC1; Pro(cis-4-F) = O=C(O)[C@@H]1C[C@H](F)CN1; mTyr = N[C@@H](Cc1cccc(O)c1)C(=O)O; Hyp = O=C(O)[C@@H]1C[C@@H](O)CN1; αMeF = C[C@](N)(Cc1ccccc1)C(=O)O; Gly(cBu) = N[C@H](C(=O)O)C1CCC1; NMeQ = CN[C@@H](CCC(N)=O)C(=O)O; Pentanoyl(4-Me) = CC(C)CCC(=O)*; Cit = NC(=O)NCCC[C@H](N)C(=O)O; Aic = NC1(C(=O)O)Cc2ccccc2C1; Butoxycarbonyl = CCCCOC(=O)*; Nle = CCCC[C@H](N)C(=O)O; Orn = NCCC[C@H](N)C(=O)O; Nva = CCC[C@H](N)C(=O)O; Pentanoyl = CCCCC(=O)*; Aib = CC(C)(N)C(=O)O

Assays:
human uPAR (uPAR-Fc) = target: T1, human uPAR (uPAR-Fc) (Homo sapiens, UniProt Q03405); experiment: Surface plasmon resonance (SPR) assay, single cycle kinetics; format: binding; details: pKD category for uPAR SPR activity assay; uPAR-Fc on Protein A-Chip, single cycle kinetics, 25°C; read-out: pKD CAT (converted)
T1 construct: comprising amino acids Leu23-Arg303 according to UniProt entry Q03405.1; purchased R&D Systems 10378-UK-100
T1 sequence (Q03405 23-303): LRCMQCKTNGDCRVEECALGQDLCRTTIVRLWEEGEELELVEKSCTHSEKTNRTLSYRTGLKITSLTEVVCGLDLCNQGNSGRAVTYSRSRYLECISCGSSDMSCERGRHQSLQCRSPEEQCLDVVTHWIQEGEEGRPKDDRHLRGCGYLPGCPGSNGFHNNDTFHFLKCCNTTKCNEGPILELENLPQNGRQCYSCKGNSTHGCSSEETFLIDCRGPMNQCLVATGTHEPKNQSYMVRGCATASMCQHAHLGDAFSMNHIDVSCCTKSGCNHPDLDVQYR
Outline: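 uPAR-Fc (Leu23-Arg303 extracellular domains, human IgG1 Fc) captured on Protein A chip to ~2000 RU; single-cycle kinetics at 25°C in HEPES running buffer pH 7.4 with 0.1% DMSO. KD from double-referenced sensorgrams fitted to 1:1 Langmuir model, reported as pKD.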

[1] = target: T2, uPAR-expressing HEC-265 human endometrial adenocarcinoma cells (Homo sapiens, UniProt Q03405); experiment: Competitive FACS binding assay; details: pIC50 category of FACS binding
T2 construct: Cell surface uPAR-expressing HEC-265 human endometrial adenocarcinoma cells; host or cells: HEC-265
T2 sequence (Q03405 23-335): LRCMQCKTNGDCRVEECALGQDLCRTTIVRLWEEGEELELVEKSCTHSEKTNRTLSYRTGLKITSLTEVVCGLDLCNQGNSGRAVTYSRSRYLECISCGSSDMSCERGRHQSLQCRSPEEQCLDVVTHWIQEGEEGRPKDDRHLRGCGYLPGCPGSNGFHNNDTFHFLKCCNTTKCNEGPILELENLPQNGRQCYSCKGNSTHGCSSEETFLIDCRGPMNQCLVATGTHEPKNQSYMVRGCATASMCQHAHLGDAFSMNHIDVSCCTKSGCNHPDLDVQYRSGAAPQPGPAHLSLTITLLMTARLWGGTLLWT
Outline: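 Competitive displacement of a 10 nM biotinylated peptide from HEC-265 cells (1 h, 4 °C, PBS/1% BSA), detected via APC-streptavidin by flow cytometry. pIC50 from four-parameter logistic fit of median fluorescence versus concentration.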

Compound	Kd (human uPAR (uPAR-Fc))	IC50 [1]
CCCC[C@@H]1NC(=O)[C@H](CCCNC(=N)N)NC(=O)[C@@H](NC(=O)[C@H](CC(C)C)NC(=O)[C@H](CC(=O)O)NC(C)=O)CSSC[C@@H](C(N)=O)NC(=O)[C@H](CC(C)C)NC(=O)[C@H]([C@@H](C)CC)NC(=O)[C@@H](C)NC(=O)[C@@H]2CCCN2C(=O)[C@H](Cc2ccccc2)NC(=O)[C@H](Cc2ccc(O)cc2)NC1=O [UPAR-406, Ac-Asp-Leu-[Cys-Arg-Nle-Tyr-Phe-Pro-ala-Ile-Leu-Cys]-NH2] (Ac-DLCR[Nle]YFP[dA]ILC-NH2; disulfide 3-12)	< 1.58 nM	≤ 10 nM
CC[C@H](C)[C@@H]1NC(=O)[C@@H](C)NC(=O)[C@@H]2CCCN2C(=O)[C@H](Cc2ccccc2)NC(=O)[C@H](Cc2ccc(O)cc2)NC(=O)[C@H](CCC(N)=O)N(C)C(=O)[C@H](CCCNC(N)=O)NC(=O)[C@@H](NC(=O)CCC(C)C)CSSC[C@@H](C(N)=O)NC(=O)[C@H](CC(C)C)NC1=O [UPAR-407, iHex-[Cys-Cit-Nmq-Tyr-Phe-Pro-ala-Ile-Leu-Cys]-NH2] ({Pentanoyl(4-Me)}-C[Cit][NMeQ]YFP[dA]ILC-NH2; disulfide 1-10)	10 to 100 nM	≥ 126 nM
CCCCC(=O)N[C@H]1CSSC[C@@H](C(N)=O)NC(=O)[C@H](CCC)NC(=O)[C@H]([C@@H](C)CC)NC(=O)[C@@H]2C[C@@H](O)CN2C(=O)[C@@H]2CCCN2C(=O)[C@H](Cc2ccccc2)NC(=O)[C@H](Cc2ccc(O)cc2)NC(=O)CNC(=O)[C@H](CCCNC(=N)N)NC1=O [UPAR-409, Pent-[Cys-Arg-Gly-Tyr-Phe-Pro-Hyp-Ile-Nva-Cys]-NH2] (Pentanoyl-CRGYFP[Hyp]I[Nva]C-NH2; disulfide 1-10)	< 1.58 nM	≤ 10 nM
CC[C@H](C)[C@@H]1NC(=O)[C@@H]2C[C@@H](O)CN2C(=O)[C@@H]2CCCN2C(=O)[C@H](Cc2ccccc2)NC(=O)[C@H](Cc2ccc(O)cc2)NC(=O)[C@H](CC(=O)O)NC(=O)[C@H](CCCNC(N)=O)NC(=O)[C@@H](NC(=O)CCC(C)C)CSSC[C@@H](C(N)=O)NC(=O)[C@H](CC(C)C)NC1=O [UPAR-410, iHex-[Cys-Cit-Asp-Tyr-Phe-Pro-Hyp-Ile-Leu-Cys]-NHz] ({Pentanoyl(4-Me)}-C[Cit]DYFP[Hyp]ILC-NH2; disulfide 1-10)	< 1.58 nM	≤ 10 nM
CCCCC(=O)N[C@H]1CSSC[C@@H](C(N)=O)NC(=O)[C@H](C2CCC2)NC(=O)[C@H]([C@@H](C)CC)NC(=O)[C@@H]2C[C@@H](O)CN2C(=O)[C@@H]2CCCN2C(=O)[C@H](Cc2ccccc2)NC(=O)[C@H](Cc2ccc(O)cc2)NC(=O)[C@H](CCC(N)=O)NC(=O)[C@H](CCCNC(=N)N)NC1=O [UPAR-411, Pent-[Cys-Arg-Gln-Tyr-Phe-Pro-Hyp-Ile-Cbg-Cys]-NH2] (Pentanoyl-CRQYFP[Hyp]I[Gly(cBu)]C-NH2; disulfide 1-10)	< 1.58 nM	≤ 10 nM
CCCC[C@@H]1NC(=O)[C@H](CCCNC(=N)N)NC(=O)[C@H](NC(=O)[C@H](CC(C)C)NC(=O)[C@H](CC(=O)O)NC(C)=O)CSSC[C@@H](C(N)=O)NC(=O)[C@H](CC(C)C)NC(=O)[C@H]([C@@H](C)CC)NC(=O)[C@H](C)NC(=O)[C@@H]2CCCN2C(=O)[C@H](Cc2ccccc2)NC(=O)[C@H](Cc2ccc(O)cc2)NC1=O [UPAR-412, Ac-Asp-Leu-[cys-Arg-Nle-Tyr-Phe-Pro-Ala-Ile-Leu-Cys]-NH2] (Ac-DL[dC]R[Nle]YFPAILC-NH2; disulfide 3-12)	> 100 nM	≥ 126 nM
CC[C@H](C)[C@@H]1NC(=O)[C@@H](C)NC(=O)[C@@H]2CCCN2C(=O)[C@H](Cc2ccccc2)NC(=O)[C@H](Cc2ccc(O)cc2)NC(=O)[C@H](CCCCNC(C)=O)NC(=O)[C@H](CCCNC(N)=O)NC(=O)[C@@H](NC(=O)CCC(C)C)CSSC[C@@H](C(N)=O)NC(=O)[C@H](CC(C)C)NC1=O [UPAR-413, iHex-[Cys-Cit-Lys(Ac)-Tyr-Phe-Pro-ala-Ile-Leu-Cys]-NH2] ({Pentanoyl(4-Me)}-C[Cit]K(Ac)YFP[dA]ILC-NH2; disulfide 1-10)	< 1.58 nM	≤ 10 nM
CC[C@H](C)[C@@H]1NC(=O)[C@H](CCCCNC(=O)CN2CCN(CC(=O)O)CCN(CC(=O)O)CCN(CC(=O)O)CC2)NC(=O)[C@@H]2CCCN2C(=O)[C@H](Cc2ccccc2)NC(=O)[C@H](Cc2ccc(O)cc2)NC(=O)[C@H](CCC(N)=O)NC(=O)[C@@H](C)NC(=O)[C@@H](NC(=O)CCC(C)C)CSSC[C@@H](C(N)=O)NC(=O)[C@H](CC(C)C)NC1=O [UPAR-414, iHex-[Cys-ala-Gln-Tyr-Phe-Pro-Lys(DOTA)-Ile-Leu-Cys]-NH2] ({Pentanoyl(4-Me)}-C[dA]QYFPK(DOTA)ILC-NH2; disulfide 1-10)	10 to 100 nM	12.6 to 31.6 nM
CCCCOC(=O)N[C@H]1CSSC[C@@H](C(N)=O)NC(=O)[C@H](CCC)NC(=O)[C@H]([C@@H](C)CC)NC(=O)[C@@H]2C[C@@H](O)CN2C(=O)[C@@H]2C[C@H](F)CN2C(=O)[C@H](Cc2ccccc2)NC(=O)[C@H](Cc2cccc(O)c2)NC(=O)[C@H](CCCNC(=O)CN2CCN(CC(=O)O)CCN(CC(=O)O)CCN(CC(=O)O)CC2)NC(=O)[C@H]([C@@H](C)O)NC1=O [UPAR-415, Butoc-[Cys-Thr-Orn(DOTA)-My-Phe-4Cfp-Hyp-Ile-Nva-Cys]-NH2] (Butoxycarbonyl-CT[Orn](DOTA)[mTyr]F[Pro(cis-4-F)][Hyp]I[Nva]C-NH2; disulfide 1-10)	< 1.58 nM	≤ 10 nM
CCCCC(=O)N[C@H]1CSSC[C@@H](C(N)=O)NC(=O)[C@H](CCC)NC(=O)[C@H]([C@@H](C)CC)NC(=O)[C@@H]2C[C@@H](O)CN2C(=O)[C@@H]2CCCN2C(=O)[C@](C)(Cc2ccccc2)NC(=O)[C@H](Cc2ccc(O)cc2)NC(=O)[C@H](CCCCNC(=O)CN2CCN(CC(=O)O)CCN(CC(=O)O)CCN(CC(=O)O)CC2)NC(=O)[C@H](CCCNC(N)=O)NC1=O [UPAR-416, Pent-[Cys-Cit-Lys(DOTA)-Tyr-Amf-Pro-Hyp-Ile-Nva-Cys]-NH2] (Pentanoyl-C[Cit]K(DOTA)Y[αMeF]P[Hyp]I[Nva]C-NH2; disulfide 1-10)	> 100 nM	≥ 126 nM
CCCCC(=O)N[C@H]1CSSC[C@@H](C(N)=O)NC(=O)[C@H](CCC)NC(=O)[C@H]([C@@H](C)CC)NC(=O)[C@@H]2C[C@@H](O)CN2C(=O)[C@@H]2CCCN2C(=O)C2(Cc3ccccc3C2)NC(=O)[C@H](Cc2ccc(O)cc2)NC(=O)[C@H](CCCCNC(=O)CN2CCN(CC(=O)O)CCN(CC(=O)O)CCN(CC(=O)O)CC2)NC(=O)[C@H](CCCNC(N)=O)NC1=O [UPAR-417, Pent-[Cys-Cit-Lys(DOTA)-Tyr-Aic-Pro-Hyp-Ile-Nva-Cys]-NH2] (Pentanoyl-C[Cit]K(DOTA)Y[Aic]P[Hyp]I[Nva]C-NH2; disulfide 1-10)	> 100 nM	≥ 126 nM
CCCCC(=O)N[C@H]1CSSC[C@@H](C(N)=O)NC(=O)[C@H](CCC)NC(=O)[C@H]([C@@H](C)CC)NC(=O)[C@@H]2C[C@@H](O)CN2C(=O)C(C)(C)NC(=O)[C@H](Cc2ccccc2)NC(=O)[C@H](Cc2ccc(O)cc2)NC(=O)[C@H](CCCCNC(=O)CN2CCN(CC(=O)O)CCN(CC(=O)O)CCN(CC(=O)O)CC2)NC(=O)[C@H]([C@@H](C)O)NC1=O [UPAR-419, Pent-[Cys-Thr-Lys(DOTA)-Tyr-Phe-Aib-Hyp-Ile-Nva-Cys]-NH2] (Pentanoyl-CTK(DOTA)YF[Aib][Hyp]I[Nva]C-NH2; disulfide 1-10)	10 to 100 nM	12.6 to 31.6 nM
CCCC[C@@H]1NC(=O)[C@H](CCCNC(=N)N)NC(=O)[C@@H](NC(=O)[C@H](CC(C)C)NC(=O)[C@H](CC(=O)O)NC(C)=O)CSSC[C@@H](C(N)=O)NC(=O)[C@H](CC(C)C)NC(=O)[C@@H](CC(C)C)NC(=O)[C@H](C)NC(=O)[C@@H]2CCCN2C(=O)[C@H](Cc2ccccc2)NC(=O)[C@H](Cc2ccc(O)cc2)NC1=O [UPAR-420, Ac-Asp-Leu-[Cys-Arg-Nle-Tyr-Phe-Pro-Ala-leu-Leu-Cys]-NH2] (Ac-DLCR[Nle]YFPA[dL]LC-NH2; disulfide 3-12)	10 to 100 nM	39.8 to 100 nM
CCCCOC(=O)N[C@H]1CSSC[C@@H](C(N)=O)NC(=O)[C@H](CCC)NC(=O)[C@H]([C@@H](C)CC)NC(=O)[C@@H]2C[C@@H](O)CN2C(=O)[C@@H]2C[C@H](F)CN2C(=O)[C@H](Cc2ccccc2)NC(=O)[C@H](Cc2ccc(O)cc2)NC(=O)[C@H](CCCCNC(=O)[C@H](CCCC[N+](C)(C)CCCS(=O)(=O)[O-])NC(=O)CN2CCN(CC(=O)O)CCN(CC(=O)O)CCN(CC(=O)O)CC2)NC(=O)[C@H]([C@@H](C)O)NC1=O [UPAR-422, Butoc-[Cys-Thr-Lys(DOTA-Kzw)-Tyr-Phe-4Cfp-Hyp-Ile-Nva-Cys]-NHz] (Butoxycarbonyl-CTK(X4)YF[Pro(cis-4-F)][Hyp]I[Nva]C-NH2; disulfide 1-10)	< 1.58 nM	≤ 10 nM
CC[C@H](C)[C@@H]1NC(=O)[C@H](CCCNC(=N)N)NC(=O)[C@@H]2CCCN2C(=O)[C@H](Cc2ccccc2)NC(=O)[C@H](Cc2ccc(O)cc2)NC(=O)[C@H](CCCCNC(=O)CN2CCN(CC(=O)O)CCN(CC(=O)O)CCN(CC(=O)O)CC2)NC(=O)[C@H](CCCNC(N)=O)NC(=O)[C@@H](NC(=O)[C@H](CC(C)C)NC(=O)[C@H](CC(=O)O)NC(C)=O)CSSC[C@@H](C(N)=O)NC(=O)[C@H](CC(C)C)NC1=O [UPAR-423, Ac-Asp-Leu-[Cys-Cit-Lys(DOTA)-Tyr-Phe-Pro-Arg-Ile-Leu-Cys]-NH2] (Ac-DLC[Cit]K(DOTA)YFPRILC-NH2; disulfide 3-12)	< 1.58 nM	≤ 10 nM
